From patent US20250136669A1, “VHH ANTIBODY” (TEIKYO HEISEI UNIVERSITY, priority 2021, published 2025)

Tests used:
[1] = tested on: Pseudomonas aeruginosa; settings: fraction of MIC, Non Patent Literatures 4 and 5; cited from earlier work
[2] = tested on: Staphylococcus aureus ATCC25923; assay: Colistin MIC with antibody, Staphylococcus aureus; format: cell-based; settings: same in absence and presence of 10 μg/mL 4P41 LZ trimer
Description: The minimum growth inhibitory concentration (MIC) of an antimicrobial agent was measured by a microbroth dilution method in accordance with the Clinical Laboratory Standards Institute (CLSI) guideline. The serially diluted antimicrobial agent was added to a 96-well round bottom microtiter plate (Watson Co., Ltd.) at 100 μL/well, and each bacterial strain was inoculated at 5×10^5 CFU/mL/well. As the antimicrobial agent, Aztreonam (Sigma-Aldrich), Amikacin (Sigma-Aldrich), Arbekacin (Meiji Seika Pharma Co., Ltd.), Ofloxacin (Sigma-Aldrich), colistin (Sigma-Aldrich), and Polymyxin B (Sigma-Aldrich) were used. Synergistic effect of an antibody and an antimicrobial agent was evaluated using a checkerboard dilution method. Each of the antimicrobial agents was serially two-fold diluted in the vertical direction in a 96-well round bottom titer plate to concentrations between 0.125 to 2 times the MIC. Subsequently, an antibody was serially two-fold diluted in the horizontal direction of the plate in a range of 0 to 10 μg/mL or 0 to 20 μg/mL. Each bacterial strain was inoculated at 5×10^5 CFU/mL/well.
A multidrug-resistant Pseudomonas aeruginosa NCGM2.S1 and drug-susceptible Pseudomonas aeruginosa PAO1 and OCR1 were cultured using Luria Bertani (LB) medium (BD) or an LB plate containing 15 g/L of agar at 37° C. […]

[3] = tested on: multidrug-resistant Pseudomonas aeruginosa NCGM2.S1; assay: Silkworm Pseudomonas aeruginosa infection model; format: in vivo; settings: colistin alone administration group, probit analysis
Description: A: Overnight culture solution of NCGM2.S1 was diluted by 100 times and cultured for 16 hours and was then injected into hemolymph of silkworms on the 2nd day of the 5th instar, and 0.05 mL of colistin was then injected into the blood. The survival rates were measured over 96 hours. […] The survival rates were measured over 96 hours. […] The survival rates were measured over 96 hours.
Overnight culture solution of multidrug-resistant Pseudomonas aeruginosa NCGM2.S1 was diluted 100 times and was further cultured overnight. The bacterial culture solution was diluted with physiological saline (Otsuka Pharmaceutical Co., Ltd.), and 0.05 mL thereof was injected into hemolymph from the dorsal surface using a 1-mL injection syringe (Terumo Corporation) and 27-gauge syringe needle (Terumo Corporation), and the silkworm larvae were fed at 27° C. The median lethal dose was measured from the survival rate after 24 hours, and 0.05 mL of the bacteria in an amount 4 times the median lethal dose was injected to make a silkworm Pseudomonas aeruginosa infection model.

[4] = tested on: ovalbumin-loop 1 peptide (loop 1 of OprM); assay: ELISA binding of VHH monomer to loop 1 antigen; parameters: species or system Pseudomonas aeruginosa; settings: purified monomer protein
Description: In the anti-loop 1 VHH antibody, 0.1 M NaHCO3 (Blank), 0.1 M NaHCO3 containing […] of thyroglobulin, 0.1 M NaHCO3 containing 10 μg/mL of thyroglobulin-loop 1 peptide, or 0.1 M NaHCO3 containing 10 μg/mL of ovalbumin-loop 1 peptide was added to a 96-well immuno plate (Nunc) at 40 μL/well and was left to stand at 4° C. overnight.
In the anti-loop 2 VHH antibody, 0.1 M NaHCO3 (Blank), 0.1 M NaHCO3 containing […] of KLH-loop 2 peptide was added to a 96-well immuno plate (Nunc) at 40 μL/well and was left to stand at 4° C. overnight. SuperBlock-PBS (Thermo Fisher Scientific) was added to the plate at 350 μL/well and left to stand at room temperature for 1 hour. After washing with 400 μL/well of PBS-T (phosphate buffer saline containing 0.05% Tween 20), 40 µL/well of SuperBlock-TBS containing 0.2 μg/mL of the VHH antibody was added thereto, followed by reaction at room temperature for 1 hour. The wells were washed with 400 μL/well of PBS-T again three times, and 40 μL/well of anti-Myc mouse monoclonal antibody 9E10 (Santa Cruz Biotechnology Inc.) diluted 500 times with SuperBlock-TBS was added thereto, followed by reaction at room temperature for 1 hour. […] Subsequently, absorbance at 450 nm was measured, and the average and standard deviation were calculated of triplicate or quadruplicate measurement.

[5] = tested on: multidrug-resistant Pseudomonas aeruginosa strain NCGM2.S1; assay: Drug susceptibility test (MIC, microbroth dilution, CLSI) with antibody added; format: cell-based; settings: NCGM2.S1, antibody 10 μg/mL, FIG. 14B
Description: B: MIC of colistin in the presence of an antibody. The MIC of colistin in the presence of each antibody in NCGM2.S1 was measured by a microbroth dilution method in accordance with the CLSI guideline. […] As the negative control, a 4P6 trimer which is a human TRAIL-R1 VHH trimer was used.
The minimum growth inhibitory concentration (MIC) of an antimicrobial agent was measured by a microbroth dilution method in accordance with the Clinical Laboratory Standards Institute (CLSI) guideline. The serially diluted antimicrobial agent was added to a 96-well round bottom microtiter plate (Watson Co., Ltd.) at 100 μL/well, and each bacterial strain was inoculated at 5×10^5 CFU/mL/well. As the antimicrobial agent, Aztreonam (Sigma-Aldrich), Amikacin (Sigma-Aldrich), Arbekacin (Meiji Seika Pharma Co., Ltd.), Ofloxacin (Sigma-Aldrich), colistin (Sigma-Aldrich), and Polymyxin B (Sigma-Aldrich) were used. Synergistic effect of an antibody and an antimicrobial agent was evaluated using a checkerboard dilution method. Each of the antimicrobial agents was serially two-fold diluted in the vertical direction in a 96-well round bottom titer plate to concentrations between 0.125 to 2 times the MIC. Subsequently, an antibody was serially two-fold diluted in the horizontal direction of the plate in a range of 0 to 10 μg/mL or 0 to 20 μg/mL. Each bacterial strain was inoculated at 5×10^5 CFU/mL/well. […]

c1ccc2c(CN3CCNCC3)cccc2c1 [NMP, 1-(1-naphthylmethyl)-piperazine]
decrease of the MIC value of an antimicrobial agent in Pseudomonas aeruginosa [1]: ⅛

c1ccc2c(c1)Nc1ccccc1S2 [phenothiazine]
decrease of the MIC value of an antimicrobial agent in Pseudomonas aeruginosa [1]: ⅛

colistin
MIC of colistin in Staphylococcus aureus [2]: > 128 µg/mL
therapeutically effective dose ED50 of colistin [3]: 124 μg/g body weight

B1: 4P94 monomer: anti-loop 1 VHH antibody from alpaca, monomer with cMyc-Tag and His-Tag (protein)
VHH: EVQLVESGGGLVQAGNSLKLSCVVSGRTLRNYAMGWFRQAPLKEREFVAAIGWTTGTASYGTPTYSDSVKGRFTISRDNAGNTLYLLMNNLKPEDTAVYYCAAGLIGYFGDRISSASVYDGWGQGTQVTVSS
modifications: left off: small tags and cut ends
notes: anti-loop 1 VHH antibody from alpaca, monomer with cMyc-Tag and His-Tag
binding to ovalbumin-loop 1 peptide [4]: specifically bound
change in MIC of colistin, antibody added at 10 μg/mL [5]: ¼
